In ChEMBL document CHEMBL4507285, “Data for DCP probe MRL-SYKi” (2021):

What was measured:
[1] = target: RAC-gamma serine/threonine-protein kinase (Homo sapiens) (UniProt Q9Y243); conditions: Compound concentration 100.0 nM
[2] = target: Calcium/calmodulin-dependent protein kinase type 1B (Homo sapiens) (UniProt Q6P2M8); conditions: Compound concentration 100.0 nM
[3] = target: Calcium/calmodulin-dependent protein kinase type 1G (Homo sapiens) (UniProt Q96NX5); conditions: Compound concentration 100.0 nM
[4] = target: Calcium/calmodulin-dependent protein kinase type II subunit gamma (Homo sapiens) (UniProt Q13555); conditions: Compound concentration 100.0 nM
[5] = target: Calcium/calmodulin-dependent protein kinase kinase 2 (Homo sapiens) (UniProt Q96RR4); conditions: Compound concentration 100.0 nM
[6] = target: Cyclin-dependent kinase 19 (Homo sapiens) (UniProt Q9BWU1); conditions: Compound concentration 100.0 nM
[7] = target: Cyclin-dependent kinase 5 (Homo sapiens) (UniProt Q00535); conditions: Compound concentration 100.0 nM
Chain of Cyclin-dependent kinase 5 (Homo sapiens) (Q00535 whole entry, looked up): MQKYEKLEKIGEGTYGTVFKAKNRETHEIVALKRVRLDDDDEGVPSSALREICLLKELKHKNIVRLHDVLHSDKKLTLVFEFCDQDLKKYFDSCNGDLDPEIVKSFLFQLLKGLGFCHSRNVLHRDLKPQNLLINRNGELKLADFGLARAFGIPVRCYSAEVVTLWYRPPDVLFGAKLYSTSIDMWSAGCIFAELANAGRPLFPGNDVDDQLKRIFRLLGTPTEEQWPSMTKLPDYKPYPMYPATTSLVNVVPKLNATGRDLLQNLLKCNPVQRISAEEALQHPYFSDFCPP

[8] = target: Cyclin-dependent kinase-like 1 (Homo sapiens) (UniProt Q00532); conditions: Compound concentration 100.0 nM
[9] = target: Casein kinase I isoform epsilon (Homo sapiens) (UniProt P49674); conditions: Compound concentration 100.0 nM
[10] = target: Casein kinase I isoform gamma-2 (Homo sapiens) (UniProt P78368); conditions: Compound concentration 100.0 nM
[11] = target: Death-associated protein kinase 1 (Homo sapiens) (UniProt P53355); conditions: Compound concentration 100.0 nM
[12] = target: Serine/threonine-protein kinase DCLK2 (Homo sapiens) (UniProt Q8N568); conditions: Compound concentration 100.0 nM
[13] = target: Serine/threonine-protein kinase 17B (Homo sapiens) (UniProt O94768); conditions: Compound concentration 100.0 nM
[14] = target: Ephrin type-B receptor 2 (Homo sapiens) (UniProt P29323); conditions: Compound concentration 100.0 nM
[15] = target: Receptor tyrosine-protein kinase erbB-4 (Homo sapiens) (UniProt Q15303); conditions: Compound concentration 100.0 nM
[16] = system: Receptor-type tyrosine-protein kinase FLT3 (Homo sapiens), P36888 [K663Q]; conditions: Compound concentration 100.0 nM
[17] = target: Glycogen synthase kinase-3 beta (Homo sapiens) (UniProt P49841); conditions: Compound concentration 100.0 nM
[18] = target: Interleukin-1 receptor-associated kinase 1 (Homo sapiens) (UniProt P51617); conditions: Compound concentration 100.0 nM
Chain of Interleukin-1 receptor-associated kinase 1 (Homo sapiens) (P51617 whole entry, looked up): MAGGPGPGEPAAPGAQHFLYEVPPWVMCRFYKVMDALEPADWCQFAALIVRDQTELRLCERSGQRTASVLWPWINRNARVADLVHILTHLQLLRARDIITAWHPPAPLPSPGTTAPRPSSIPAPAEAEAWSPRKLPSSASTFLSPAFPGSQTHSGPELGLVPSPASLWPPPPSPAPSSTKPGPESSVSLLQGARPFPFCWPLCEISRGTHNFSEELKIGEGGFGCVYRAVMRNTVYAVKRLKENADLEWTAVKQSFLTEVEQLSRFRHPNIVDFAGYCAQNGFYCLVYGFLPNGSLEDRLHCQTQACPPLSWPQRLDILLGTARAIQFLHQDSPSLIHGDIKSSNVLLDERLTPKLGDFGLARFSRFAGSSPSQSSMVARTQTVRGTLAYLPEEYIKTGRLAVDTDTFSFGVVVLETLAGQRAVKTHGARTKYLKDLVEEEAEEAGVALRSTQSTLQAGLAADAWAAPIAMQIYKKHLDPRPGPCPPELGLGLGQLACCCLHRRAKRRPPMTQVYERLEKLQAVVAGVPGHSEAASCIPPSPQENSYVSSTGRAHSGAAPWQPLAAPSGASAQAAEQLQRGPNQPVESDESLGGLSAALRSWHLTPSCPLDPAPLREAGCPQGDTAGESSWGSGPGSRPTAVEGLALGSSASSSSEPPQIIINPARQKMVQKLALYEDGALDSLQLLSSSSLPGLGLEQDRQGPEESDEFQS

[19] = system: Mast/stem cell growth factor receptor Kit (Homo sapiens), P10721 [D816H]; conditions: Compound concentration 100.0 nM
[20] = target: Serine/threonine-protein kinase MAK (Homo sapiens) (UniProt P20794); conditions: Compound concentration 100.0 nM
Chain of Serine/threonine-protein kinase MAK (Homo sapiens) (P20794 whole entry): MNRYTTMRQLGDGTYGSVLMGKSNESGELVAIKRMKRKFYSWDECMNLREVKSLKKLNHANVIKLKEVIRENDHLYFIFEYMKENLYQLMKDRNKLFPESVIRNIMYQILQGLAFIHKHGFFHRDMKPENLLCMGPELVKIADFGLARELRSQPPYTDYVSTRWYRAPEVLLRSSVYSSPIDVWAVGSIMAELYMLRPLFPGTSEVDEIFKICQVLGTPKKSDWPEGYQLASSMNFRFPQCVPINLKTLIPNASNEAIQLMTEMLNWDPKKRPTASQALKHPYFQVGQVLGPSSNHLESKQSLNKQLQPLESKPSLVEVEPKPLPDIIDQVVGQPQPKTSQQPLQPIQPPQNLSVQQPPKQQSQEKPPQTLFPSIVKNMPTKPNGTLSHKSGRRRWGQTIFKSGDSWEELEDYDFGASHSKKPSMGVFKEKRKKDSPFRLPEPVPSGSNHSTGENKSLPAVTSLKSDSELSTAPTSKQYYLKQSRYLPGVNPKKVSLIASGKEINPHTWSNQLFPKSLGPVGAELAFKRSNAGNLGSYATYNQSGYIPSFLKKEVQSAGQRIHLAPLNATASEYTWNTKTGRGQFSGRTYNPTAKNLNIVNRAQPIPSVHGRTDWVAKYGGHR

[21] = target: Microtubule-associated serine/threonine-protein kinase 1 (Homo sapiens) (UniProt Q9Y2H9); conditions: Compound concentration 100.0 nM
[22] = target: Dual specificity mitogen-activated protein kinase kinase 6 (Homo sapiens) (UniProt P52564); conditions: Compound concentration 100.0 nM
[23] = target: Maternal embryonic leucine zipper kinase (Homo sapiens) (UniProt Q14680); conditions: Compound concentration 100.0 nM
[24] = target: Mitogen-activated protein kinase kinase kinase 10 (Homo sapiens) (UniProt Q02779); conditions: Compound concentration 100.0 nM
[25] = target: Serine/threonine-protein kinase Nek4 (Homo sapiens) (UniProt P51957); conditions: Compound concentration 100.0 nM
[26] = target: Serine/threonine-protein kinase NIM1 (Homo sapiens) (UniProt Q8IY84); conditions: Compound concentration 100.0 nM
Chain of Serine/threonine-protein kinase NIM1 (Homo sapiens) (Q8IY84 whole entry): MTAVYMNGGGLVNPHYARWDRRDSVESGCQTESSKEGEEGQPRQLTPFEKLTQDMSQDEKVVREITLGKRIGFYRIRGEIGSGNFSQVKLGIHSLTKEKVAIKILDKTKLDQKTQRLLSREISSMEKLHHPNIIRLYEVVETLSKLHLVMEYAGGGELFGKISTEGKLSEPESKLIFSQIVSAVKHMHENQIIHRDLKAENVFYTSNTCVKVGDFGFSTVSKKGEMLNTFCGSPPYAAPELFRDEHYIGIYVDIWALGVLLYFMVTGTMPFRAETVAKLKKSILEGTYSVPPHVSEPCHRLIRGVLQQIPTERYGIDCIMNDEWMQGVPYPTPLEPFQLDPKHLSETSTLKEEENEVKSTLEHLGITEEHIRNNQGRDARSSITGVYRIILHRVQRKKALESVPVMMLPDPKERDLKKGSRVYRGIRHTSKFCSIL

[27] = target: Serine/threonine-protein kinase OSR1 (Homo sapiens) (UniProt O95747); conditions: Compound concentration 100.0 nM
Chain of Serine/threonine-protein kinase OSR1 (Homo sapiens) (O95747 2-527 limits assumed): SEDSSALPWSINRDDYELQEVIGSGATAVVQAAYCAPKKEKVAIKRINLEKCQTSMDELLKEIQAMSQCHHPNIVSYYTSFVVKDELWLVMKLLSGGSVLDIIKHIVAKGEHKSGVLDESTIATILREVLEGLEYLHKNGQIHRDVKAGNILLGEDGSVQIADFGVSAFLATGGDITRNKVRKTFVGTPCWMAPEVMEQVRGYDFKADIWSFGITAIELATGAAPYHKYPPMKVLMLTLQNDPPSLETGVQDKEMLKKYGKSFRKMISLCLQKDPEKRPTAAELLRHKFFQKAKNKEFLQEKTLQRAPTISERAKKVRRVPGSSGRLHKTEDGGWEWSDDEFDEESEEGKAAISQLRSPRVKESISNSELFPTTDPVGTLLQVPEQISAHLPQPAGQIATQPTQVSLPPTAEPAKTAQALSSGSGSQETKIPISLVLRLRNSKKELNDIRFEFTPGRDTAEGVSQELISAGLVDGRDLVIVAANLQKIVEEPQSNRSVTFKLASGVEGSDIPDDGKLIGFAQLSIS

[28] = target: Phosphatidylinositol 4,5-bisphosphate 3-kinase catalytic subunit gamma isoform (Homo sapiens) (UniProt P48736); conditions: Compound concentration 100.0 nM
Chain of Phosphatidylinositol 4,5-bisphosphate 3-kinase catalytic subunit gamma isoform (Homo sapiens) (P48736 whole entry, looked up, canonical isoform): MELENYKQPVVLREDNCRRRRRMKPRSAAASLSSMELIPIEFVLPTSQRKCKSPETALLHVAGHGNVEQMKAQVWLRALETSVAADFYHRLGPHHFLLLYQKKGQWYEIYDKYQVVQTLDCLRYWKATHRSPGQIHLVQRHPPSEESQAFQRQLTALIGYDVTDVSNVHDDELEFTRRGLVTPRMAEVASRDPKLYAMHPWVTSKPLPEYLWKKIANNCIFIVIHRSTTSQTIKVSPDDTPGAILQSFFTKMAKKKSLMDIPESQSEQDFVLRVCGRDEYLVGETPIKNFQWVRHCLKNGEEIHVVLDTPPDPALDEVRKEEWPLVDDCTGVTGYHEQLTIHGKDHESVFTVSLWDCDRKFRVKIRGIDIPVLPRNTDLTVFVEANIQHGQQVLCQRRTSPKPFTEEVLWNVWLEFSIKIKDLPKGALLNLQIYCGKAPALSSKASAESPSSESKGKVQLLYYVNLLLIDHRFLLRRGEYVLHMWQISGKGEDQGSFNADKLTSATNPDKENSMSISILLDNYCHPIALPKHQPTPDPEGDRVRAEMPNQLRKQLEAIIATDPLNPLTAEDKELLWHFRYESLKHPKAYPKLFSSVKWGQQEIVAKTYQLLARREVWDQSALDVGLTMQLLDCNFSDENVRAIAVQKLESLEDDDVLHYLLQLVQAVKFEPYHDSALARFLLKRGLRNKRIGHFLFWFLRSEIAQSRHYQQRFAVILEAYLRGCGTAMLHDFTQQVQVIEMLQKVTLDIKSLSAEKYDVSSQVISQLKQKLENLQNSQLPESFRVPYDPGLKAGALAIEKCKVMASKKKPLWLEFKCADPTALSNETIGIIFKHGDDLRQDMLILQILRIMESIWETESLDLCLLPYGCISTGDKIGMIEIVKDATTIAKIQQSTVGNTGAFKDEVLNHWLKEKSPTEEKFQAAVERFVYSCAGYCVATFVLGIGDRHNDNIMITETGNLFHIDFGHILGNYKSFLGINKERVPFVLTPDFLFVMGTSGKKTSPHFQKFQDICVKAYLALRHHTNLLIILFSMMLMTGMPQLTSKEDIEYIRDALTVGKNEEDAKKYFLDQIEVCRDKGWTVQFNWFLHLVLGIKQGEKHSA

[29] = target: Serine/threonine-protein kinase N2 (Homo sapiens) (UniProt Q16513); conditions: Compound concentration 100.0 nM
[30] = system: Proto-oncogene tyrosine-protein kinase receptor Ret (Homo sapiens), P07949 [V804M]; conditions: Compound concentration 100.0 nM
[31] = target: Serine/threonine-protein kinase RIO2 (Homo sapiens) (UniProt Q9BVS4); conditions: Compound concentration 100.0 nM
[32] = target: Receptor-interacting serine/threonine-protein kinase 4 (Homo sapiens) (UniProt P57078); conditions: Compound concentration 100.0 nM
[33] = target: Ribosomal protein S6 kinase alpha-2 (Homo sapiens) (UniProt Q15349); conditions: Compound concentration 100.0 nM
[34] = target: Serine/threonine-protein kinase SBK1 (Homo sapiens) (UniProt Q52WX2); conditions: Compound concentration 100.0 nM
[35] = target: Uncharacterized serine/threonine-protein kinase SBK3 (Homo sapiens) (UniProt P0C264); conditions: Compound concentration 100.0 nM
[36] = target: Serine/threonine-protein kinase tousled-like 2 (Homo sapiens) (UniProt Q86UE8); conditions: Compound concentration 100.0 nM
[37] = target: Transient receptor potential cation channel subfamily M member 6 (Homo sapiens) (UniProt Q9BX84); conditions: Compound concentration 100.0 nM
[38] = target: Dual specificity protein kinase TTK (Homo sapiens) (UniProt P33981); conditions: Compound concentration 100.0 nM
[39] = target: Non-receptor tyrosine-protein kinase TYK2 (Homo sapiens) (UniProt P29597); conditions: Compound concentration 100.0 nM
[40] = target: Serine/threonine-protein kinase ULK1 (Homo sapiens) (UniProt O75385); conditions: Compound concentration 100.0 nM
[41] = target: Serine/threonine-protein kinase WNK2 (Homo sapiens) (UniProt Q9Y3S1); conditions: Compound concentration 100.0 nM
[42] = target: D(2) dopamine receptor (Homo sapiens) (UniProt P14416); conditions: Compound concentration 10.0 uM
Chain of D(2) dopamine receptor (Homo sapiens) (P14416 whole entry): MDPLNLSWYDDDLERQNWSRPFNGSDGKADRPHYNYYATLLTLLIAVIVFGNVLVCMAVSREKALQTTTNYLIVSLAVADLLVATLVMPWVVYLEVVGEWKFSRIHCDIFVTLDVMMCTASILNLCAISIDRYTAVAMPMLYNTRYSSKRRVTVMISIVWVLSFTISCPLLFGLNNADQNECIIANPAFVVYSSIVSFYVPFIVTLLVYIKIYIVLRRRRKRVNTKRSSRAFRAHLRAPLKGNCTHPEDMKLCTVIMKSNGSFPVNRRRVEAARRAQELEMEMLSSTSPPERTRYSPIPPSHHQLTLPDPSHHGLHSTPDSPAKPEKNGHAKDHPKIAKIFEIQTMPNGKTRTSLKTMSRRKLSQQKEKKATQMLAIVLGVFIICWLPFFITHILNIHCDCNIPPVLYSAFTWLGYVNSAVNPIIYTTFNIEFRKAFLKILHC

[43] = target: Histamine H4 receptor (Homo sapiens) (UniProt Q9H3N8); conditions: Compound concentration 10.0 uM
[44] = target: Beta-2 adrenergic receptor (Homo sapiens) (UniProt P07550); conditions: Compound concentration 10.0 uM
Chain of Beta-2 adrenergic receptor (Homo sapiens) (P07550 whole entry, looked up): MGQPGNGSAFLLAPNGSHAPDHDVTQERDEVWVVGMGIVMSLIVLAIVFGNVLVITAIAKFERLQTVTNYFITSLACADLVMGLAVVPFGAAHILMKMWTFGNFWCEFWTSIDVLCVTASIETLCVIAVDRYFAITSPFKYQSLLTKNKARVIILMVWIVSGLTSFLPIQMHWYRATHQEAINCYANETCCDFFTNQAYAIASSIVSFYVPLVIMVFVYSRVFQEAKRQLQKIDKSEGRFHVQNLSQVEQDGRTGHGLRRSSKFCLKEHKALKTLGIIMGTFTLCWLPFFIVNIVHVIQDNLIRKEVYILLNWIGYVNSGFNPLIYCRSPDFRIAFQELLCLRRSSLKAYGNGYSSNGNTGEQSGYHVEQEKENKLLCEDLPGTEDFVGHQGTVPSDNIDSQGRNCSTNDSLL

[45] = target: Muscarinic acetylcholine receptor M4 (Homo sapiens) (UniProt P08173); conditions: Compound concentration 10.0 uM
Chain of Muscarinic acetylcholine receptor M4 (Homo sapiens) (P08173 whole entry): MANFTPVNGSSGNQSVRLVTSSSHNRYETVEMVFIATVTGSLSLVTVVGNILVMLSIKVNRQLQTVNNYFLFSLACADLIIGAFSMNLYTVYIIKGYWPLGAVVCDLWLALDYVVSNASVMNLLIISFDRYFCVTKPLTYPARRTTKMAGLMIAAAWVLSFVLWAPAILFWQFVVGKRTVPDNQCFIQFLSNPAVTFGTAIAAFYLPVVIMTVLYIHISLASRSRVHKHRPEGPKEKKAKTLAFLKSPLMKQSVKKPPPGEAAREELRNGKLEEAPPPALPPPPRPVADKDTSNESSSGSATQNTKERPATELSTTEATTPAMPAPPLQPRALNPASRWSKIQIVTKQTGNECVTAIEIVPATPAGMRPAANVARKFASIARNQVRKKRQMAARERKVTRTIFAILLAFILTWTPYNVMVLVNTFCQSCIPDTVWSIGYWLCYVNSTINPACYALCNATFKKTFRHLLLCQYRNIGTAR

Q: With `Cc1ccc(-c2cnc([C@@]3(O)CC[C@H](C(=O)O)C(C)(C)C3)s2)cc1Nc1cccc(C(F)(F)F)n1` [MRL-SYKi-NC] as the molecule, how does the residual activity [1] read?
A: 82.8%

Q: And the residual activity [2]?
A: 95.9%

Q: And the residual activity [3]?
A: 90.7%

Q: What about the residual activity [4] of the same molecule?
A: 88.2%

Q: And the residual activity [5]?
A: 91.5%

Q: And the residual activity [6]?
A: 95.3%

Q: And the residual activity [7]?
A: 100%

Q: And the residual activity [8]?
A: 75.6%

Q: What about the residual activity [9] of the same molecule?
A: 87.6%

Q: And the residual activity [10]?
A: 100%

Q: What about the residual activity [11] of the same molecule?
A: 100%

Q: What about the residual activity [12] of the same molecule?
A: 100%

Q: And the residual activity [13]?
A: 94.6%

Q: And the residual activity [14]?
A: 100%

Q: And the residual activity [15]?
A: 81.2%

Q: And the residual activity [16]?
A: 100%

Q: And the residual activity [17]?
A: 95.6%

Q: And the residual activity [18]?
A: 49.8%

Q: And the residual activity [19]?
A: 61.4%

Q: And the residual activity [20]?
A: 93.9%

Q: And the residual activity [21]?
A: 100%

Q: What about the residual activity [22] of the same molecule?
A: 89.3%

Q: And the residual activity [23]?
A: 100%

Q: What about the residual activity [24] of the same molecule?
A: 69.4%

Q: What about the residual activity [25] of the same molecule?
A: 84%

Q: And the residual activity [26]?
A: 100%

Q: What about the residual activity [27] of the same molecule?
A: 69.9%

Q: And the residual activity [28]?
A: 85.4%

Q: What about the residual activity [29] of the same molecule?
A: 96.3%

Q: What about the residual activity [30] of the same molecule?
A: 100%

Q: What about the residual activity [31] of the same molecule?
A: 100%

Q: And the residual activity [32]?
A: 92.8%

Q: What about the residual activity [33] of the same molecule?
A: 100%

Q: What about the residual activity [34] of the same molecule?
A: 51.1%

Q: What about the residual activity [35] of the same molecule?
A: 100%

Q: What about the residual activity [36] of the same molecule?
A: 89.9%

Q: What about the residual activity [37] of the same molecule?
A: 77.1%

Q: What about the residual activity [38] of the same molecule?
A: 78.8%

Q: And the residual activity [39]?
A: 100%

Q: And the residual activity [40]?
A: 73.1%

Q: And the residual activity [41]?
A: 98.6%

Q: What about the inhibition [42] of the same molecule?
A: -5.34%

Q: What about the inhibition [43] of the same molecule?
A: 8.06%

Q: And the inhibition [44]?
A: 1.6%

Q: And the inhibition [45]?
A: 20%

Q: How did the residual activity [1] turn out when `Cc1cc(Nc2nccc(C)n2)cc(-c2cnc([C@@]3(O)CC[C@H](C(=O)O)C(C)(C)C3)s2)c1` [MRL-SYKi] was run?
A: 100%

Q: What about the residual activity [2] of the same molecule?
A: 78.1%

Q: What about the residual activity [3] of the same molecule?
A: 100%

Q: And the residual activity [4]?
A: 95.2%

Q: What about the residual activity [5] of the same molecule?
A: 69.7%

Q: What about the residual activity [6] of the same molecule?
A: 85%

Q: What about the residual activity [7] of the same molecule?
A: 87.6%

Q: And the residual activity [8]?
A: 78.8%

Q: What about the residual activity [9] of the same molecule?
A: 100%

Q: And the residual activity [10]?
A: 94.5%

Q: What about the residual activity [11] of the same molecule?
A: 100%

Q: What about the residual activity [12] of the same molecule?
A: 90.1%

Q: What about the residual activity [13] of the same molecule?
A: 100%

Q: What about the residual activity [14] of the same molecule?
A: 100%

Q: And the residual activity [15]?
A: 81.9%

Q: And the residual activity [16]?
A: 82.1%

Q: And the residual activity [17]?
A: 100%

Q: What about the residual activity [18] of the same molecule?
A: 80.7%

Q: What about the residual activity [19] of the same molecule?
A: 97.7%

Q: And the residual activity [20]?
A: 73.8%

Q: And the residual activity [21]?
A: 100%

Q: And the residual activity [22]?
A: 100%

Q: And the residual activity [23]?
A: 88%

Q: What about the residual activity [24] of the same molecule?
A: 95.1%

Q: What about the residual activity [25] of the same molecule?
A: 96.6%

Q: And the residual activity [26]?
A: 100%

Q: And the residual activity [27]?
A: 79.9%

Q: And the residual activity [28]?
A: 100%

Q: And the residual activity [29]?
A: 100%

Q: And the residual activity [30]?
A: 81.3%

Q: What about the residual activity [31] of the same molecule?
A: 83.9%

Q: What about the residual activity [32] of the same molecule?
A: 91.9%

Q: And the residual activity [33]?
A: 86%

Q: What about the residual activity [34] of the same molecule?
A: 100%

Q: What about the residual activity [35] of the same molecule?
A: 100%

Q: What about the residual activity [36] of the same molecule?
A: 100%

Q: And the residual activity [37]?
A: 94.8%

Q: And the residual activity [38]?
A: 74.8%

Q: What about the residual activity [39] of the same molecule?
A: 100%

Q: And the residual activity [40]?
A: 100%

Q: What about the residual activity [41] of the same molecule?
A: 81.2%

Q: And the inhibition [42]?
A: -3.52%

Q: What about the inhibition [43] of the same molecule?
A: 7.61%

Q: And the inhibition [44]?
A: 5.53%

Q: What about the inhibition [45] of the same molecule?
A: 16.7%
